# Data taken from patent US10138249B2, “Triazolopyridines and triazolopyrazines as LSD1 inhibitors” (priority 2014, dated 2018).
# Molecular target: LSD-1 enzyme (Homo sapiens (Human), UniProt O60341)
# Assay type: biochemical
# Settings: not given
# Protocol: LANCE LSD1/KDM1A demethylase assay-10 μL of 1 nM LSD-1 enzyme (ENZO BML-SE544-0050) in the assay buffer (50 mM Tris, pH 7.5, 0.01% Tween-20, 25 mM NaCl, 5 mM DTT) were preincubated for 1 hour at 25° C. with 0.8 μL compound/DMSO dotted in black 384 well polystyrene plates. […] After stopping the reactions plates were incubated for 30 minutes and read on a PHERAstar FS plate reader (BMG Labtech).
row,SMILES,IC50 [µM]
1,"Cc1ccc(-c2c(-c3ccc(C#N)cc3)cc(OC[C@@H]3CCNC3)c3nn(CC#N)c(=O)n23)cc1 [Example 5, (R)-4-(2-(cyanomethyl)-3-oxo-8-(pyrrolidin-3-ylmethoxy)-5-p-tolyl-2,3-dihydro-[1,2,4]triazolo[4,3-a]pyridin-6-yl)benzonitrile]",< 0.05
2,"Cc1ccc(-c2c(-c3ccc(C#N)cc3)cc(OC[C@@H]3CCNC3)c3nn(CC4CCCC4)c(=O)n23)cc1 [Example 7, 4-{2-(cyclopentylmethyl)-5-(4-methylphenyl)-3-oxo-8-[(3R)-pyrrolidin-3-ylmethoxy]-2,3-dihydro[1,2,4]triazolo[4,3-a]pyridin-6-yl}benzonitrile]",< 0.05
3,"Cc1ccc(-c2c(-c3ccc(C#N)cc3)cc(OC[C@@H]3CCNC3)c3nn(Cc4ccccc4)c(=O)n23)cc1 [Example 16, 4-{2-benzyl-5-(4-methylphenyl)-3-oxo-8-[(3R)-pyrrolidin-3-ylmethoxy]-2,3-dihydro[1,2,4]triazolo[4,3-a]pyridin-6-yl}benzonitrile]",< 0.05

# Same assay, conditions: 1 nM LSD-1 enzyme, 1 hour preincubation at 25° C., 0.4 μM biotin-labeled histone H3 peptide substrate
row,SMILES,IC50 [µM]
1,"Cc1ccc(-c2c(-c3ccc(C#N)cc3)cc(OC[C@@H]3CCNC3)c3nncn23)cc1 [Example 1, 4-{5-(4-methylphenyl)-8-[(3R)-pyrrolidin-3-ylmethoxy][1,2,4]triazolo[4,3-a]pyridin-6-yl}benzonitrile]",≤ 0.05
2,"Cc1ccc(-c2c(-c3ccc(C#N)c(F)c3)cc(OC[C@@H]3CCNC3)c3nncn23)cc1 [Example 2, 2-fluoro-4-{5-(4-methylphenyl)-8-[(3R)-pyrrolidin-3-ylmethoxy][1,2,4]triazolo[4,3-a]pyridin-6-yl}benzonitrile]",≤ 0.05
3,"Cc1ccc(-c2c(-c3ccc(C#N)cc3)cc(OC[C@@H]3CCNC3)c3n[nH]c(=O)n23)cc1 [Example 3, 4-{5-(4-methylphenyl)-3-oxo-8-[(3R)-pyrrolidin-3-ylmethoxy]-2,3-dihydro[1,2,4]triazolo[4,3-a]pyridin-6-yl}benzonitrile]",≤ 0.05
4,"Cc1ccc(-c2c(-c3ccc(C#N)cc3)cc(OC[C@@H]3CCNC3)c3nn(CCC#N)c(=O)n23)cc1 [Example 6, 4-{2-(2-cyanoethyl)-5-(4-methylphenyl)-3-oxo-8-[(3R)-pyrrolidin-3-ylmethoxy]-2,3-dihydro[1,2,4]triazolo[4,3-a]pyridin-6-yl}benzonitrile]",≤ 0.05
5,"Cc1ccc(-c2c(-c3ccc(C#N)cc3)cc(OC[C@@H]3CCNC3)c3nn(CC4CCNCC4)c(=O)n23)cc1 [Example 13, 4-{5-(4-methylphenyl)-3-oxo-2-(piperidin-4-ylmethyl)-8-[(3R)-pyrrolidin-3-ylmethoxy]-2,3-dihydro[1,2,4]triazolo[4,3-a]pyridin-6-yl}benzonitrile]",≤ 0.05
6,"Cc1ccc(-c2c(-c3ccc(C#N)cc3)cc(OC[C@@H]3CCNC3)c3nn(CCOc4ccccc4)c(=O)n23)cc1 [Example 14, 4-{5-(4-methylphenyl)-3-oxo-2-(2-phenoxyethyl)-8-[(3R)-pyrrolidin-3-ylmethoxy]-2,3-dihydro[1,2,4]triazolo[4,3-a]pyridin-6-yl}benzonitrile]",≤ 0.05
7,"Cc1ccc(-c2c(-c3ccc(C#N)cc3)cc(OC[C@@H]3CCNC3)c3nn(CCN(C)C)c(=O)n23)cc1 [Example 15, 4-{2-[2-(dimethylamino)ethyl]-5-(4-methylphenyl)-3-oxo-8-[(3R)-pyrrolidin-3-ylmethoxy]-2,3-dihydro[1,2,4]triazolo[4,3-a]pyridin-6-yl}benzonitrile]",≤ 0.05
8,"Cc1ccc(-c2c(-c3ccc(C#N)cc3)cc(OC[C@@H]3CCNC3)c3nn(Cc4ccc(C#N)cc4)c(=O)n23)cc1 [Example 17, 4-{2-(4-cyanobenzyl)-5-(4-methylphenyl)-3-oxo-8-[(3R)-pyrrolidin-3-ylmethoxy]-2,3-dihydro[1,2,4]triazolo[4,3-a]pyridin-6-yl}benzonitrile]",≤ 0.05
